{"source": "patent US12128037B2", "about": "(priority 2017, dated 2024)", "key": {"[1]": {"assay": "Gravimetric vapour sorption (GVS), hygroscopicity", "format": "physicochemical", "conditions": "25° C.", "method": "Gravimetric vapour sorption (GVS) was used to determine the hygrocopicity of the samples: experiments were performed at 25° C. using a DVS 1 instrument from SMS Ltd to record adsorption-desorption isotherms using different methods, the main features being: a single sorption/desorption cycle from 0 to 80% RH in 10% RH steps with a dm/dt trigger value of 0.002% (dm/dt=change in mass with time—when the balance stability is within this value the next step is automatically started, however, if those conditions are not achieved there is a default maximum time for each step of 6 hours). The sample amount used was 1-3 mg."}, "[2]": {"set-up": "species or system male Wistar (Hannover) rats", "conditions": "rat, in vivo, iv", "method": "(§1) In accordance with Swedish legislations for preclinical in vivo studies in rodents and following evaluation and approval of the experimental procedures the local ethical committee (M388-12), following acclimatization to the housing conditions for a minimum of 7 days after arrival, male Wistar (Hannover) rats (Taconic, Denmark), average weight 180-200 g; average age 8-10 weeks, were treated with test items (see Table 2); 12-16 h prior to dosing all food except for an amount equivalent to a half day consumption was removed. The test items were administrated using a soft gavage tube (p.o.) or by injecting the test item in the tail vein (i.v). The volume given was 10 mL/kg (p.o.) or 1 mL/kg (i.v.). Before i.v administration the rats were anesthetized using isoflurane. The rats were conscious during sample collection and the blood was taken from the sub-lingual vein. Blood samples were collected from each rat over a period of up to 24 h. At each time point two aliquots of 50 μL each was added to a vial containing 150 μL of sterile water. The samples were mixed immediately and stored in −18° C. until preparation for bioanalysis commenced. All formulations were prepared on the same day that dosing took place. The body weight of the rat was recorded before dosing. The weight of the syringe was recorded before and after administration to allow calculation of the actual amount of test sample delivered. The actual doses were used during the evaluation of the data.\n(§2) The plasma levels of sulfasalazine were determined using LCMS/MS in mrm (multiple reaction monitoring) mode.\nSamples and standards were injected by a HTC PAL from CTC analytics into an LC system from Shimadzu consisting of a high pressure gradient system of two LC-10 AD pumps controlled by a SCL-10A controller from Shimadzu. The samples were separated using reverse-phase chromatography with gradient elution at a flow rate of 0.8 mL/min. Mobile phases were A:94.9/5/0.1 water/acetonitrile/formic acid and B:[…] water/acetonitrile/formic acid. Gradient started at 0% B and increased linearly to 100% B in 4 minutes, 100% B was kept for 0.5 minutes and then the system returned to 0% B in 0.1 minutes. The system was equilibrated for 1.4 minutes until the total run time of 6 minutes. The eluent was analyzed by a Quattro Ultima from Micromass equipped with an electrospray ion source. Data was collected and calibrations were calculated by MassLynx 4.0 software. […] The eluent was ionized by negative ion electrospray and the mrm transition from 397 to 197 m/z was monitored. […]\nPositive and negative mode MS/MS was employed for sulfasalazine. […] Samples with analyte concentrations above the upper limit of quantification were diluted with matrix to reach within the assay range. […]"}, "[3]": {"assay": "Pharmacokinetics of sulfasalazine in rat, oral administration", "format": "in vivo, male Wistar (Hannover) rats", "conditions": "60 mg/kg", "method": "as §1, §2\nSamples and standards were injected by a HTC PAL from CTC analytics into an LC system from Shimadzu consisting of a high pressure gradient system of two LC-10 AD pumps controlled by a SCL-10A controller from Shimadzu. The samples were separated using reverse-phase chromatography with gradient elution at a flow rate of 0.8 mL/min. Mobile phases were A:94.9/5/0.1 water/acetonitrile/formic acid and B:[…] water/acetonitrile/formic acid. Gradient started at 0% B and increased linearly to 100% B in 4 minutes, 100% B was kept for 0.5 minutes and then the system returned to 0% B in 0.1 minutes. The system was equilibrated for 1.4 minutes until the total run time of 6 minutes. The eluent was analyzed by a Quattro Ultima from Micromass equipped with an electrospray ion source. Data was collected and calibrations were calculated by MassLynx 4.0 software. […] The eluent was ionized by negative ion electrospray and the mrm transition from 397 to 197 m/z was monitored.\nThe diluted blood sample (50 μL blood, 150 μL water) was thawed and mixed. 400 μL of Acetonitrile, to precipitate the protein was added and mixed again. The sample was centrifuged at 5,000 g for 5 minutes. 100 μL of the supernatant was transferred to a 300 μL glass vial and 100 μL of water was added to reduce the acetonitrile concentration.\nPositive and negative mode MS/MS was employed for sulfasalazine. The concentration of the standard curve was in the range from 5 nM to 15625 nM. Samples with analyte concentrations above the upper limit of quantification were diluted with matrix to reach within the assay range. A non-compartmental analysis (NCA) was performed using the Phoenix WinNonLin analysis tool."}, "[4]": {"assay": "Solubility in water or FaSSIF-V2 medium (Example 8, HPLC)", "method": "The mobile phase consists of mobile phase (A): 1.13 g sodium dihydrogen phosphate and 2.5 g sodium acetate are dissolved in 1000 mL purified water. The pH is afterwards adjusted with acetic acid (100%) to 4.8. and mobile phase (B): 1 part mobile phase A is mixed with 4 parts of methanol for chromatography. The flow rate was 1.0 mL/min, injection volume 5 μL and detection wavelengths 320 nm (HP DAD series 1100). Run time is 10 min. Quantitation was performed using external standard methodology. The assay method has been validated with respect to selectivity, repeatability and linearity. Samples are prepared with dilute ammonia R3 PhEur.\nThe saturated solutions were filtrated using centrifuge filters (Nylon, […]) and the clear supernatants were respectively injected either directly or after dilution with dilute ammonia R3 PhEur."}, "[5]": {"conditions": "cited from earlier work"}, "[6]": {"assay": "Transport across Caco 2 cell monolayer", "format": "in vitro ADME", "conditions": "human, direction ab (apical to basal), 180 min incubation"}, "[7]": {"conditions": "cited from earlier work", "remark": "listed apart in the source"}, "[8]": {"system": "binding of TNF-alpha to its receptor", "conditions": "125I-TNF-alpha displacement; cited from earlier work"}, "[9]": {"assay": "Solubility in de-ionized water (HPLC)", "conditions": "24 °C, thermodynamic from solid", "quoted_text": "The flow rate was 1.0 mL/min, injection volume 5 μL and detection wavelengths 358 nm (for assay) and 260 nm (for chromatographic purity). Quantitation was performed using external standard methodology. The assay method has been validated with respect to selectivity, repeatability and linearity."}, "[10]": {"conditions": "male, Wistar (Hannover), whole blood"}}, "note": "Where “and” joins values, the source holds several entries; their conditions need not be identical. Equal entries are not always repeated. Where two headings read alike, the source gives them in different places."}
{"compound": "CCNCC.O=C(O)c1cc(N=Nc2ccc(S(=O)(=O)Nc3ccccn3)cc2)ccc1O", "note": "[Form A diethylamine salt, Diethylamine 2-hydroxy-5-[2-[4-[(2-pyridinylamino)sulfonyl]phenyl]diazenyl]-benzoate]", "values": [{"measurement": "water vapor uptake (GVS)", "setting": "[1]; 30% RH", "result": 0.3, "unit": "% w/w"}, {"measurement": "water vapor uptake (GVS)", "setting": "[1]; 80% RH", "result": 0.5, "unit": "% w/w"}]}
{"compound": "CNCC(O)C(O)C(O)C(O)CO.O=C(O)c1cc(N=Nc2ccc(S(=O)(=O)Nc3ccccn3)cc2)ccc1O", "note": "[Form A meglumine salt]", "values": [{"measurement": "water vapor uptake (GVS)", "setting": "[1]; 30% RH, listed as Example 1", "result": "< 0.4", "unit": "% w/w"}, {"measurement": "water vapor uptake (GVS)", "setting": "[1]; 30% RH, listed as Example 2", "result": 0.4, "unit": "% w/w"}, {"measurement": "water vapor uptake (GVS)", "setting": "[1]; 80% RH, listed as Example 1", "result": "< 0.9", "unit": "% w/w"}, {"measurement": "water vapor uptake (GVS)", "setting": "[1]; 80% RH, listed as Example 2", "result": 1.1, "unit": "% w/w"}, {"measurement": "AUCinf obs", "setting": "[2]; 1 mg/kg", "result": "1,661 ± 191 h*nM"}, {"measurement": "T1/2", "setting": "[2]; 1 mg/kg", "result": 1.2, "unit": "h"}, {"measurement": "AUCinf obs", "setting": "[2]; 5 mg/kg", "result": "11,889 ± 735 h*nM"}, {"measurement": "T1/2", "setting": "[2]; 5 mg/kg", "result": 1.3, "unit": "h"}, {"measurement": "F", "setting": "[3]; in vivo", "result": 3.8, "unit": "%"}, {"measurement": "T1/2", "setting": "[3]; in vivo", "result": "1.9 ± 0.5", "unit": "h"}, {"measurement": "Solubility", "setting": "[4]; pH 6.8", "result": 60.3, "unit": "mg/mL"}]}
{"compound": "Nc1ccc(S(=O)(=O)Nc2ccccn2)cc1", "note": "[sulfapyridine]", "values": [{"measurement": "systemic bioavailability", "setting": "[5]; metabolite formed from non-absorbed sulfasalazine by gut flora", "result": "about 60%"}]}
{"compound": "O=C(O)c1cc(/N=N/c2ccc(S(=O)(=O)Nc3ccccn3)cc2)ccc1O", "note": "[sulfasalazine, 2-hydroxy-5-[2-[4-[(2-pyridinylamino)sulfonyl]phenyl]diazenyl]-benzoic acid]", "values": [{"measurement": "Papp A→B at 180 min, 50 μg/mL", "setting": "[6]; 50 μg/mL", "result": 13.9, "unit": "nm/s"}, {"measurement": "Papp A→B at 180 min, 200 μg/mL", "setting": "[6]; 200 μg/mL", "result": 11.6, "unit": "nm/s"}, {"measurement": "F", "setting": "[3]; male, Wistar (Hannover), in vivo", "result": 2.5, "unit": "%"}, {"measurement": "Cmax", "setting": "[3]; [10]", "result": "0.7 ± 0.11", "unit": "µM"}, {"measurement": "Tmax", "setting": "[3]; [10]", "result": "0.72 ± 0.57", "unit": "h"}, {"measurement": "AUC", "setting": "[3]; male, Wistar (Hannover), whole blood, p.o., read-out: AUC0.1, 5 h obs", "result": "810 ± 130", "unit": "nM·h"}, {"measurement": "AUC", "setting": "[3]; male, Wistar (Hannover), whole blood, p.o., read-out: AUCall", "result": "2810 ± 410", "unit": "nM·h"}, {"measurement": "half-life", "setting": "[3]; male, Wistar (Hannover), whole blood, p.o.", "result": "2 ± 0.5", "unit": "h"}, {"measurement": "Solubility", "setting": "[4]; FaSSIF-V2, room temperature (20-25° C.), saturated solution", "result": 0.78, "unit": "mg/mL"}, {"measurement": "solubility at 24 h", "setting": "[4]; water, pH 5.9, water, thermodynamic from solid", "result": 0.06, "unit": "mg/mL"}, {"measurement": "solubility, United States Pharmacopoeia class practically insoluble", "setting": "[7]; USP classification", "result": "< 0.1", "unit": "mg/mL"}, {"measurement": "solubility in de-ionized water", "setting": "[7]; de-ionized water at 24° C., literature value", "result": "0.03 mg/mL and 0.031 mg/mL"}, {"measurement": "solubility in water", "setting": "[7]; water", "result": "less than 5 mg/100 ml"}, {"measurement": "half-life", "setting": "[5]; intravenously administered", "result": "approximately 7.6±3.6 hours"}, {"measurement": "time of median peak concentration", "setting": "[5]; man, oral", "result": 6, "unit": "h"}, {"measurement": "binding of TNF-alpha to its receptor", "setting": "[8]", "result": "inhibits"}, {"measurement": "Solubility", "setting": "[9]", "result": 0.06, "unit": "mg/mL"}]}
